Experiment [1] has as its system (G4T4G4)2 (DNA, G4) GGGGTTTTGGGG
Description: UV-Vis titration. The following applies: 100 mM KCl, 20 mM potassium phosphate, PBS pH 6.8, 25 °C.

Experiment [2] relates to AG3(T2AG3)3 (DNA, G4) AGGGTTAGGGTTAGGGTTAGGG
Description: UV-Vis titration. Conditions: 100 mM KCl, 20 mM potassium phosphate; PBS 0.1 mM EDTA pH 6.8, 25 °C; 2 μM ligand; apparent.

Experiment [3] relates to 5GC (DNA, duplex) GCGCGCGCGC
Kind of experiment: UV-Vis titration. The following applies: 100 mM KCl, 20 mM potassium phosphate; PBS 0.1 mM EDTA pH 6.8, 25 °C; 2 μM ligand; apparent.

For experiment [4], the system named is AG3(T2AG3)3 (DNA, G4) AGGGTTAGGGTTAGGGTTAGGG
Kind of experiment: CD melting at 290 nm. The following applies: 100 mM KCl, 20 mM potassium phosphate; PBS pH 6.8; 6 μM as printed for solutions; derived from two Tm.

Experiment [5] concerns (T2G5T)4 (DNA, G4) TTGGGGGT
Description: G4-FID fluorescent intercalator displacement. Conditions: 100 mM KCl, 20 mM potassium phosphate; PBS pH 6.8, 25 °C; thiazole orange displaced.

In experiment [6] the test system is AG3(T2AG3)3 (DNA, G4) AGGGTTAGGGTTAGGGTTAGGG
Description: G4-FID fluorescent intercalator displacement. Conditions: 100 mM KCl, 20 mM potassium phosphate; PBS pH 6.8, 25 °C; thiazole orange displaced.

Experiment [7] deals with 5GC (DNA, duplex) GCGCGCGCGC
Description: G4-FID fluorescent intercalator displacement. Conditions: 100 mM KCl, 20 mM potassium phosphate; PBS pH 6.8, 25 °C; thiazole orange displaced.

The subject of experiment [8] is AG3(T2AG3)3 (DNA, G4) AGGGTTAGGGTTAGGGTTAGGG
Description: fluorimetric titration, ligand fluorescence, Hill fit. The following applies: 100 mM KCl, 20 mM potassium phosphate; 25 °C; 1 μM ligand, DNA 0-3 μM; apparent; Hill n ≈ 2.

SMILES strings stand for the structures.

The ΔTm is the change in melting temperature against a reference sample. For the compound `COc1cc[n+](-c2cc3c(cc2-[n+]2ccc(OC)cc2)-c2nc-3nc3nc(nc4[n-]c(nc5[n-]c(n2)c2cc(-[n+]6ccc(OC)cc6)c(-[n+]6ccc(OC)cc6)cc52)c2cc(-[n+]5ccc(OC)cc5)c(-[n+]5ccc(OC)cc5)cc42)-c2cc(-[n+]4ccc(OC)cc4)c(-[n+]4ccc(OC)cc4)cc2-3)cc1.[Zn+2]`, the binding result in experiment [1] (2 μM ligand, red shift 15 nm) was “yes”. The KD result is “(7.61 ± 0.11) × 10^−8 M” in experiment [2], “(4.74 ± 0.13) × 10^−4 M” in experiment [3] and 74 nM in experiment [8]. The ΔTm in experiment [4] is 11.8 °C. Also, the DC50 is 1080 ± 80 nM in experiment [5], 1040 ± 280 nM in experiment [6] and 1300 ± 210 nM in experiment [7].
Consider `C[n+]1ccc(-c2c3nc(c(-c4cc[n+](C)cc4)c4ccc([nH]4)c(-c4cc[n+](C)cc4)c4nc(c(-c5cc[n+](C)cc5)c5ccc2[nH]5)C=C4)C=C3)cc1`, for which the binding result in experiment [1] (red shift 13 nm) is listed as “yes”. The ΔTm in experiment [4] worked out at 7.0 °C. The DC50 in experiment [5] came to 1170 ± 200 nM; in experiment [6], 1070 ± 90 nM; in experiment [7], 940 ± 200 nM. Besides, in experiment [8], the KD was 290 nM.
Take `C[n+]1ccc(Sc2cc3c(cc2Sc2cc[n+](C)cc2)-c2nc-3nc3nc(nc4[n-]c(nc5[n-]c(n2)c2cc(Sc6cc[n+](C)cc6)c(Sc6cc[n+](C)cc6)cc52)c2cc(Sc5cc[n+](C)cc5)c(Sc5cc[n+](C)cc5)cc42)-c2cc(Sc4cc[n+](C)cc4)c(Sc4cc[n+](C)cc4)cc2-3)cc1.[Zn+2]`: the binding entry in experiment [1] (2 μM ligand, red shift 17 nm) is on record as “yes”. Moreover, the KD result is “(9.58 ± 0.09) × 10^−6 M” in experiment [2], “(1.28 ± 0.17) × 10^−5 M” in experiment [3] and 540 nM in experiment [8]. The DC50 came to 1840 ± 30 nM in experiment [5], 1950 ± 260 nM in experiment [6] and 1930 ± 480 nM in experiment [7].

Values taken from article PMC6412362 (2019).
